According to patent US9446039B2, “Aminoheteroaryl compounds as MTH1 inhibitors” (CEMM—FORSCHUNGSZENTRUM FÜR MOLEKULARE MEDIZIN GMBH, priority 2012, dated 2016):

Legend:
Assay type in all cases: binding
[1] = target: T1, SW480 colon carcinoma cells lysate proteins (Homo sapiens, UniProt P53618); conditions: PreyGene COPB1
T1 sequence (P53618 1-953): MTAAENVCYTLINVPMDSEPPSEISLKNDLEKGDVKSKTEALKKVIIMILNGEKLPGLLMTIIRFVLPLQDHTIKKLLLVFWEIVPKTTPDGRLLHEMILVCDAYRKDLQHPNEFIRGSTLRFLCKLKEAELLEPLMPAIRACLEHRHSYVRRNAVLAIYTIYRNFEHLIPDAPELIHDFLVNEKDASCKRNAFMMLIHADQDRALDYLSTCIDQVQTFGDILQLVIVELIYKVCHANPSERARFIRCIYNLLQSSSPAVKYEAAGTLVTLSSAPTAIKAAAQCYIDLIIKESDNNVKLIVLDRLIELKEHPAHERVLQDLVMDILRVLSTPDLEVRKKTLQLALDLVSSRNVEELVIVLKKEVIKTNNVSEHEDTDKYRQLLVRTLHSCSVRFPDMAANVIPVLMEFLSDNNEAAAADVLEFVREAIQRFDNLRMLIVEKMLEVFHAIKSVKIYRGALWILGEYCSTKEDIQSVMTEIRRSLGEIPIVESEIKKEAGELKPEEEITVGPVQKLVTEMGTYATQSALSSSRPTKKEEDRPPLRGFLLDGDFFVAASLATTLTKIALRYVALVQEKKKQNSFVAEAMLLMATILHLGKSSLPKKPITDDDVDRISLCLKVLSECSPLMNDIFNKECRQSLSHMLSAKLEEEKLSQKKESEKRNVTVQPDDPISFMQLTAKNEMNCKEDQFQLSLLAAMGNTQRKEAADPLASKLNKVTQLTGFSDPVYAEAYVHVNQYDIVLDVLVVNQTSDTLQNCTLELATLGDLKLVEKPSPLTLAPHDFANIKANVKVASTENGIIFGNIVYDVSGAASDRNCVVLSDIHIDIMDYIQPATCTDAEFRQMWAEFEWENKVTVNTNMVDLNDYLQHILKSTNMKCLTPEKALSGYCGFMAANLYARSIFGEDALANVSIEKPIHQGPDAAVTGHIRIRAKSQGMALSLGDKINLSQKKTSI

[2] = target: SW480 colon carcinoma cells lysate proteins (Homo sapiens, UniProt P63244); conditions: PreyGene GNB2L1; SW480 cells
[3] = target: T2, SW480 colon carcinoma cells lysate proteins (Homo sapiens, UniProt P68402); conditions: PreyGene PAFAH1B2; SW480 cells
T2 sequence (P68402 1-229): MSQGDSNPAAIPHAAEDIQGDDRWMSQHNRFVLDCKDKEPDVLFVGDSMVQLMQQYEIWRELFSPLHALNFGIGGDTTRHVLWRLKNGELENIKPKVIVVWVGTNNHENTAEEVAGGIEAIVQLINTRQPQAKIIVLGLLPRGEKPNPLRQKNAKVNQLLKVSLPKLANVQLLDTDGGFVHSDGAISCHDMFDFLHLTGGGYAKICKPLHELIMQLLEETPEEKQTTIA

[4] = target: T3, SW480 colon carcinoma cells lysate proteins (Homo sapiens, UniProt Q15102); conditions: PreyGene PAFAH1B3; SW480 cells
T3 sequence (Q15102 1-231): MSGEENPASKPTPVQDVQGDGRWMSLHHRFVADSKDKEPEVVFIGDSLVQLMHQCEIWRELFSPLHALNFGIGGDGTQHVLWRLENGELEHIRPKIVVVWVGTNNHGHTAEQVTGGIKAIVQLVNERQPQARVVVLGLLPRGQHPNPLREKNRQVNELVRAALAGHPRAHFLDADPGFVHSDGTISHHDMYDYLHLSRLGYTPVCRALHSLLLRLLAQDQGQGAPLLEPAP

[5] = target: T4, SW480 colon carcinoma cells lysate proteins (Homo sapiens, UniProt Q8NFT6); conditions: PreyGene DBF4B
T4 sequence (Q8NFT6 1-615): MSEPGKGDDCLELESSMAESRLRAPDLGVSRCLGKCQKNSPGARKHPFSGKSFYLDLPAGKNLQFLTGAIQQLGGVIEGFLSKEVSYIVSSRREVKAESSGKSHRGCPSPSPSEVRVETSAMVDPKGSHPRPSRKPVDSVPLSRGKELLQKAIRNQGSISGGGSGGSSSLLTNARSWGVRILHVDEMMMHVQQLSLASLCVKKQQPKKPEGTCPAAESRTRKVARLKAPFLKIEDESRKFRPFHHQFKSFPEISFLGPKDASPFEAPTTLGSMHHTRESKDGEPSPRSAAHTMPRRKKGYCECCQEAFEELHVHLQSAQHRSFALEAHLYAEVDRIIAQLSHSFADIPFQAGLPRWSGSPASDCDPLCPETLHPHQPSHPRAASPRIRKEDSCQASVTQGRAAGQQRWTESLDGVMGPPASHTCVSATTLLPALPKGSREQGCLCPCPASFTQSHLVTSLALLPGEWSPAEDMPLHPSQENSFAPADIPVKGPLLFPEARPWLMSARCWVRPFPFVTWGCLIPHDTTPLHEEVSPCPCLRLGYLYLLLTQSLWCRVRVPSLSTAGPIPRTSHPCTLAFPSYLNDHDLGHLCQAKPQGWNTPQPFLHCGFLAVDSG

[6] = target: SW480 colon carcinoma cells lysate proteins (Homo sapiens, UniProt Q92598); conditions: PreyGene HSPH1
[7] = target: SW480 colon carcinoma cells lysate proteins (Homo sapiens, UniProt Q9Y262); conditions: PreyGene EIF3L; SW480 cells
SW480 colon carcinoma cells lysate proteins (Homo sapiens, UniProt Q9Y262), sequence (Q9Y262 whole entry): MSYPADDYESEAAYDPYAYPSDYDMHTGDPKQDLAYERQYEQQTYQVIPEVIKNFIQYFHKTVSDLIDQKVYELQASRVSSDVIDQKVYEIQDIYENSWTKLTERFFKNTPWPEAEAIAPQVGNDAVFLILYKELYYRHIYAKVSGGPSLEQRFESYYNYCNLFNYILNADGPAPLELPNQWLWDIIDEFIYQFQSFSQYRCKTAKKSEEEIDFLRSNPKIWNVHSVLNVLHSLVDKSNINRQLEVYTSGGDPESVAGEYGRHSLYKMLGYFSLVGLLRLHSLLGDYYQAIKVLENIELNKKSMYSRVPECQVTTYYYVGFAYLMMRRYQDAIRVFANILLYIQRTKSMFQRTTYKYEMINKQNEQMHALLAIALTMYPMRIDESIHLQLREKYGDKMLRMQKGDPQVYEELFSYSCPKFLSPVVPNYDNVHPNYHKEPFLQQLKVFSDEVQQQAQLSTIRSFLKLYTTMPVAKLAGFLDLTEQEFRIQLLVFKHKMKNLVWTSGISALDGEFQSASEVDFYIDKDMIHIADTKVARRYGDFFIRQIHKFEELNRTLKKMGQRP

SW480 colon carcinoma cells lysate proteins (Homo sapiens, UniProt Q92598), sequence (Q92598 whole entry): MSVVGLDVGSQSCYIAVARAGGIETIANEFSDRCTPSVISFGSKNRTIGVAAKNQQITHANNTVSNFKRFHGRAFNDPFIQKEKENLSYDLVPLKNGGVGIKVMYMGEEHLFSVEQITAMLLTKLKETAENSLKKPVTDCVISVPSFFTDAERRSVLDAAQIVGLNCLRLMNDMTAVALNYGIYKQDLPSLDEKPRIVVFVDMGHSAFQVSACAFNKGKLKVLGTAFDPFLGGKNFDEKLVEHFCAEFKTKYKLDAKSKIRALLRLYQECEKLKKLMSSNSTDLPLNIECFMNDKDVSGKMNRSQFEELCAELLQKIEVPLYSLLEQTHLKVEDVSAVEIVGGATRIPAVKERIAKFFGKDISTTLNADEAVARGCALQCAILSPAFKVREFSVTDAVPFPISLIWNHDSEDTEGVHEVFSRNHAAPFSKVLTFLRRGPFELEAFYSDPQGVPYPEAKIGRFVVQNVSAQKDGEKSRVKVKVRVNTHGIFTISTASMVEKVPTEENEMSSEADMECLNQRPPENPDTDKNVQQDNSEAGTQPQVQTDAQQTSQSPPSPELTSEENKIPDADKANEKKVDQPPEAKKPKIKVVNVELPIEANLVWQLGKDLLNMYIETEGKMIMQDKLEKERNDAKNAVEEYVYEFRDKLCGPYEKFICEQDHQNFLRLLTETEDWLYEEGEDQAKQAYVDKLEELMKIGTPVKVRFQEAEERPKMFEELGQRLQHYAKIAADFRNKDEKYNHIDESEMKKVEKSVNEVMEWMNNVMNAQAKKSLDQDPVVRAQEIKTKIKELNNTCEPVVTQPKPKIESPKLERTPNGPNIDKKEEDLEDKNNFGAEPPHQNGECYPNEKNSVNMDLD

SMILES: C[C@H](Oc1cc(-c2cnn(C3CCNCC3)c2)cnc1N)c1c(Cl)ccc(F)c1Cl [(5)-crizotinib]
- AvgP [1]: 0.2093
- SC.Exp. 1-1 [1]: 1
- SC.Exp. 1-2 [1]: 3
- SC.Exp. 2-1 [1]: 0
- SC.Exp. 2-2 [1]: 0
- Sum (SC.Exp.) [1]: 4
- AvgP [2]: 0
- SC.Exp. 1-1 [2]: 12
- SC.Exp. 1-2 [2]: 13
- SC.Exp. 2-1 [2]: 9
- SC.Exp. 2-2 [2]: 11
- SC.Exp. Sum [2]: 45
- AvgP [3]: 0
- SC.Exp. 1-1 [3]: 1
- SC.Exp. 1-2 [3]: 1
- SC.Exp. 2-1 [3]: 0
- SC.Exp. 2-2 [3]: 0
- SC.Exp. Sum [3]: 2
- AvgP [4]: 0
- SC.Exp. 1-1 [4]: 1
- SC.Exp. 1-2 [4]: 1
- SC.Exp. 2-1 [4]: 0
- SC.Exp. 2-2 [4]: 0
- SC.Exp. Sum [4]: 2
- AvgP [5]: 0.2
- SC.Exp. 1-1 [5]: 0
- SC.Exp. 1-2 [5]: 0
- SC.Exp. 2-1 [5]: 2
- SC.Exp. 2-2 [5]: 0
- Sum (SC.Exp.) [5]: 2
- AvgP [6]: 0.4697
- SC.Exp. 1-1 [6]: 7
- SC.Exp. 1-2 [6]: 5
- SC.Exp. 2-1 [6]: 0
- SC.Exp. 2-2 [6]: 0
- Sum (SC.Exp.) [6]: 12
- AvgP [7]: 0
- SC.Exp. 1-1 [7]: 9
- SC.Exp. 1-2 [7]: 7
- SC.Exp. 2-1 [7]: 6
- SC.Exp. 2-2 [7]: 4
- SC.Exp. Sum [7]: 26
